Patent publication US20120045459A1, “Methods for Treating Autophagy-Related Disorders” (Van Andel Research Institute, priority 2009, published 2012)

Experiments:
U2OS cells [1] = assay: LC3B immunofluorescence of autophagic vesicles; assay type: cell-based, human; conditions: full growth medium, 25 uM chloroquine, 1 hr
Description: Immunofluorescence and western blot analyses. U2OS cells were seeded at a density of 35,000 cells per well in McCoy's 5A medium supplemented with 10% FBS on number 1.5 coverglass in 24-well tissue culture plates (for immunofluorescence) or 150,000 cells per well on 6-well dishes (for western blot). After 24 h, siRNAs were transfected at a final concentration of 25 nM using 2 μl HiPerfect transfection reagents (Qiagen) per ml medium. Control siRNA was All-star negative control (Qiagen) and PTPRS siRNAs were two unique sequences (SI02759288, SI03056284, Qiagen). […] For western blots, cells were lysed (in 10 mM KPO4, 1 mM EDTA, 10 mM MgCl2, 5 mM EGTA, 50 mM bisglycerophosphate, 0.5% NP40, 0.1% Brij35, 0.1% sodium deoxycholate, 1 mM NaVO4, 5 mM NaF, 2 mM DTT, AEBSF, aprotinin, bestatin hydrochloride, E64, leupeptin, and pepstatin A and 20 μg of total protein was resolved by SDS-PAGE. Membranes were probed with primary antibodies (LC3B, Cell Signaling Technologies; α-tubulin, Sigma) for 16 h at 4° C. followed by secondary antibodies (HRP-linked anti-rabbit or anti-mouse IgG) for 1 h at room temperature. Proteins were detected by enhanced chemiluminescence. For immunofluorescence, cells were fixed with 3.7% formaldehyde, permeabilized with 0.2% Triton-X 100, and blocked with 3% bovine serum albumin (BSA) in PBS. […]

U2OS cells [2] = assay: Transmission electron microscopy of autophagic vesicles; assay type: cell-based, human; conditions: compared with control cells in full nutrients
Description: Transmission electron microscopy (TEM). U2OS cells in 10-cm dishes were transfected with control or PTPRS siRNAs for 48 h. Cells were briefly trypsinized, pelleted, rinsed, and resuspended in 2% glutaraldehyde fixative. Cell pellets were embedded in 2% agarose, postfixed in osmium tetroxide, and dehydrated with an acetone series. […] Ultrathin sections (70 nm) were generated with a Power Tome XL (Boeckeler Instruments) and placed on copper grids. Cells were examined using a JEOL 100CX Transmission Electron Microscope at 100 kV. Autophagic structures were quantified from images encompassing approximately 8.5 μm2 of cell area each.

## CCN(CC)CCCC(C)Nc1ccnc2cc(Cl)ccc12 (centres unmarked) [chloroquine]
U2OS cells [1]
  LC3-positive aggregates (AVs): LC3-positive aggregates accumulate
U2OS cells [2]
  autophagic vesicles (AVs) by TEM: evident
